Data from article PMC8948245, “Mechanistic insights into the regulation of plant phosphate homeostasis by the rice SPX2 – PHR2 complex” (Nature Communications, 2022).
Substitutions are numbered along the chain they refer to. Numbers in names are those of the source.

Experiments:
[1] = biological target: T1, SPX2^1–280/PHR2^225–362 (rice) (Oryza sativa, UniProt Q6Z784, K143A/K147A); assay: co-expression coupled Ni-NTA pull-down (InsP6-dependent SPX2-PHR2 association); assay type: biochemical; conditions: 1 mM InsP6, pH 8.0, 150 mM NaCl; indirect read-out
T1 construct: untagged full-length SPX2 (residues 1-280) co-expressed with 8xHis-tagged PHR2 225-362 in E. coli; 2:2 complex; with Protein PHOSPHATE STARVATION RESPONSE 2
T1 sequence (Q6Z784 whole entry K143A/K147A, the tested form may be a part): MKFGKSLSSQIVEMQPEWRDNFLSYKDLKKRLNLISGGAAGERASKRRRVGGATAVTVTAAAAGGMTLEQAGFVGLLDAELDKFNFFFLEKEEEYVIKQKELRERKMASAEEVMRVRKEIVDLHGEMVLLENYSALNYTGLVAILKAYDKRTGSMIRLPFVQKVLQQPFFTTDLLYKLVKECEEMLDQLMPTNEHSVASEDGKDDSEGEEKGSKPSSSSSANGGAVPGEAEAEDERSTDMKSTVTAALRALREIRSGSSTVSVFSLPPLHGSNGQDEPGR
T1 sequence (Q6Z156 225-362 partner): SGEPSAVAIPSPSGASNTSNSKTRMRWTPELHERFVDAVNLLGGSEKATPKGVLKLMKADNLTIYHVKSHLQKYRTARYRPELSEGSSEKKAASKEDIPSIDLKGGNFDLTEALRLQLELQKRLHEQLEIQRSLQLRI

[2] = biological target: T2, SPX2^1–280/PHR2^225–362 (rice) (Oryza sativa, UniProt Q6Z784, L28A); assay: as above; assay type: biochemical; conditions: 1 mM InsP6, pH 8.0, 150 mM NaCl; indirect read-out
T2 construct: untagged full-length SPX2 (residues 1-280) co-expressed with 8xHis-tagged PHR2 225-362 in E. coli; 2:2 complex; with Protein PHOSPHATE STARVATION RESPONSE 2
T2 sequence (Q6Z784 whole entry L28A, the tested form may be a part): as the sequence (Q6Z784 whole entry K143A/K147A, the tested form may be a part) above, with L28A, A143K, A147K counted along it
T2 sequence (Q6Z156 225-362 partner): as the sequence (Q6Z156 225-362 partner) above

OsSPX4 = biological target: T3, OsSPX4 (Oryza sativa, UniProt Q10B79); assay: analytical SEC (profile shift with InsP6); assay type: binding; conditions: pH 8.0, 150 mM NaCl
T3 construct: gene SPX4; full-length, N-terminal 6xHis tag removed by drICE protease; E. coli BL21(DE3)
T3 sequence (Q10B79 1-320): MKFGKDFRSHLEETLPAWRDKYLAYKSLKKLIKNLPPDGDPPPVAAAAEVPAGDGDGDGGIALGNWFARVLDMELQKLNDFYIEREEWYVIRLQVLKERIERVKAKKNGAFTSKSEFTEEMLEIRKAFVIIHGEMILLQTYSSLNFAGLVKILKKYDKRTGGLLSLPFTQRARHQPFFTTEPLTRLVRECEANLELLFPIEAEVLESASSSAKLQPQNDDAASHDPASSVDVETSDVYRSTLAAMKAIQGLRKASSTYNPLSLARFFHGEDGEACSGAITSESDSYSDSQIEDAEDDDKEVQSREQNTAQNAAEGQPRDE

[3] = biological target: T4, SPX2^1–280/PHR2^225–362 (rice) (Oryza sativa, UniProt Q6Z784, Y25F); assay: co-expression coupled Ni-NTA pull-down (InsP6-dependent SPX2-PHR2 association); assay type: biochemical; conditions: 1 mM InsP6, pH 8.0, 150 mM NaCl; indirect read-out
T4 construct: untagged full-length SPX2 (residues 1-280) co-expressed with 8xHis-tagged PHR2 225-362 in E. coli; 2:2 complex; with Protein PHOSPHATE STARVATION RESPONSE 2
T4 sequence (Q6Z784 whole entry Y25F, the tested form may be a part): as the sequence (Q6Z784 whole entry K143A/K147A, the tested form may be a part) above, with Y25F, A143K, A147K counted along it
T4 sequence (Q6Z156 225-362 partner): as the sequence (Q6Z156 225-362 partner) above

AtSPX2 = biological target: T5, AtSPX2 (Arabidopsis thaliana, UniProt O48781); assay: analytical SEC (profile shift with InsP6); assay type: binding; conditions: pH 8.0, 150 mM NaCl
T5 construct: gene SPX2; full-length, N-terminal 6xHis tag removed by drICE protease; E. coli BL21(DE3)
T5 sequence (O48781 1-287): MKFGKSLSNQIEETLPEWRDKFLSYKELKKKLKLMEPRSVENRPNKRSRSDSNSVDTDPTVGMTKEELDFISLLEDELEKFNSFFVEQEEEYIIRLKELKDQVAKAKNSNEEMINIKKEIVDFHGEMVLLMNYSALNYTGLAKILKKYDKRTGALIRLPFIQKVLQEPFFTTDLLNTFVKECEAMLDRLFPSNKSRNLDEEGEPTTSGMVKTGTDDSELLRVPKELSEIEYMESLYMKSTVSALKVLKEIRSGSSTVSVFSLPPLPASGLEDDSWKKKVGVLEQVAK

OsSPX2^1-267/Δ47-64 = biological target: T6, OsSPX2^1-267/Δ47-64 (Oryza sativa, UniProt Q6Z784, DEL47-64); assay: analytical SEC and AUC (change of oligomeric state); assay type: binding; conditions: AUC with or without 1 mM InsP6, pH 8.0, 150 mM NaCl, 18 °C; no PHR2
T6 construct: gene SPX2; residues 1-267 lacking 47-64, C-terminal 8xHis tag, excess SPX2 separated from co-expressed PHR2 231-362; E. coli; monomer with InsP6
T6 sequence (Q6Z784 with tags, fused parts or gaps DEL47-64): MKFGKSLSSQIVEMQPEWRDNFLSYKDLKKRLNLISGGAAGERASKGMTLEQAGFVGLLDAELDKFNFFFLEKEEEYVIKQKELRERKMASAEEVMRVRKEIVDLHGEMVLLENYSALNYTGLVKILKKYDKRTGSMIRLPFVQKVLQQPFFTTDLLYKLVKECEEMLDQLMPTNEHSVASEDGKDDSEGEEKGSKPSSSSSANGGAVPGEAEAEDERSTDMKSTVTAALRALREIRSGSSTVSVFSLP

OsSPX1 = biological target: T7, OsSPX1 (Oryza sativa, UniProt Q69XJ0); assay: analytical SEC (profile shift with InsP6); assay type: binding; conditions: pH 8.0, 150 mM NaCl
T7 construct: gene SPX1; full-length, N-terminal 6xHis tag removed by drICE protease; E. coli BL21(DE3)
T7 sequence (Q69XJ0 1-295): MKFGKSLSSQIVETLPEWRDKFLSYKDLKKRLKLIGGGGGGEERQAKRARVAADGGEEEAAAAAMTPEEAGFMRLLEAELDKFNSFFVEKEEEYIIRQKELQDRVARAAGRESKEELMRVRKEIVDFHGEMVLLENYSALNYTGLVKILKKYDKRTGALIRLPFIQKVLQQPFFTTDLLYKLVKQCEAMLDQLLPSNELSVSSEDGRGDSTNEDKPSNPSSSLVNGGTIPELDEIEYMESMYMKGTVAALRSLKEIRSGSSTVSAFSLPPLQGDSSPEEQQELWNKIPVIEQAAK

AtSPX4 = biological target: T8, AtSPX4 (Arabidopsis thaliana, UniProt Q94A21); assay: analytical SEC (profile shift with InsP6); assay type: binding; conditions: pH 8.0, 150 mM NaCl
T8 construct: gene SPX4; full-length, N-terminal 6xHis tag removed by drICE protease; E. coli BL21(DE3)
T8 sequence (Q94A21 1-318): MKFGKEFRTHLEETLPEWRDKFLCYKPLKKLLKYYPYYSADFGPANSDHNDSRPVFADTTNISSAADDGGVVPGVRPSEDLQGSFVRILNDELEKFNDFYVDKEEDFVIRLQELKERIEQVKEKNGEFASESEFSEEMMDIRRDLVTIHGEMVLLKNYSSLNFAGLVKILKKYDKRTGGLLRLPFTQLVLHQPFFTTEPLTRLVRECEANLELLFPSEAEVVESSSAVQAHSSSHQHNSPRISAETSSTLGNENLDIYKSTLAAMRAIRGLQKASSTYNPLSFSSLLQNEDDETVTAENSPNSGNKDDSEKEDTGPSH

[4] = biological target: T9, SPX2^1–280/PHR2^225–362 (rice) (Oryza sativa, UniProt Q6Z784, K29A); assay: co-expression coupled Ni-NTA pull-down (InsP6-dependent SPX2-PHR2 association); assay type: biochemical; conditions: 1 mM InsP6, pH 8.0, 150 mM NaCl; indirect read-out
T9 construct: untagged full-length SPX2 (residues 1-280) co-expressed with 8xHis-tagged PHR2 225-362 in E. coli; 2:2 complex; with Protein PHOSPHATE STARVATION RESPONSE 2
T9 sequence (Q6Z784 whole entry K29A, the tested form may be a part): as the sequence (Q6Z784 whole entry K143A/K147A, the tested form may be a part) above, with K29A, A143K, A147K counted along it
T9 sequence (Q6Z156 225-362 partner): as the sequence (Q6Z156 225-362 partner) above

[5] = biological target: T10, SPX2^1–280/PHR2^225–362 (rice) (Oryza sativa, UniProt Q6Z784, Y25A); assay: as above; assay type: biochemical; conditions: 1 mM InsP6, pH 8.0, 150 mM NaCl; indirect read-out
T10 construct: untagged full-length SPX2 (residues 1-280) co-expressed with 8xHis-tagged PHR2 225-362 in E. coli; 2:2 complex; with Protein PHOSPHATE STARVATION RESPONSE 2
T10 sequence (Q6Z784 whole entry Y25A, the tested form may be a part): as the sequence (Q6Z784 whole entry K143A/K147A, the tested form may be a part) above, with Y25A, A143K, A147K counted along it
T10 sequence (Q6Z156 225-362 partner): as the sequence (Q6Z156 225-362 partner) above

[6] = biological target: T11, His-tagged PHR2^225–362 (rice PHR2, MYB domain and CC domain) (rice (Oryza sativa), UniProt Q6Z156 225-362); assay: AUC; sedimentation velocity of the purified SPX2/PHR2 complex, 25 mM Tris-HCl pH 8.0, 150 mM NaCl, 1 mM InsP6, 18 °C, 0.7 mg ml^-1; conditions: both partners purified
T11 construct: pET21b, C-terminal 8×His tag; codon-optimised synthetic cDNA; also called PHR2-His; source: E. coli BL21(DE3), co-expressed with SPX2; not shown: 8×His, C-terminal, kept
T11 sequence (Q6Z156 225-362): as the sequence (Q6Z156 225-362 partner) above

[7] = biological target: the molecule itself; assay: crystal structure; mH2A1.1^181–366-tagged SPX2^1-202/∆47-59 / InsP6 / PHR2^225–362 ternary complex, 10 mM InsP6 supplied, hanging drop, 18 °C, 3.1 Å
PHR2 MYB-CC K292D = PHR2 MYB-CC K292D (Oryza sativa, UniProt B8B5N8 225-362, K292D); assay: EMSA; EMSA: 10 nM FAM-DNA, 0.3375-0.8 uM PHR2, 25 mM Tris-HCl pH 8.0, 150 mM NaCl, 5 mM DTT, 10% glycerol, 200 ng/ml heparin, 4 C, 30 min; crystal: 13% PEG 3350, 0.1; conditions: protein: recombinant; tags: C-terminal 8xHis; chain copies: 2; blunt, 30 bp
PHR2 MYB-CC K292D, sequence (B8B5N8 225-362 K292D): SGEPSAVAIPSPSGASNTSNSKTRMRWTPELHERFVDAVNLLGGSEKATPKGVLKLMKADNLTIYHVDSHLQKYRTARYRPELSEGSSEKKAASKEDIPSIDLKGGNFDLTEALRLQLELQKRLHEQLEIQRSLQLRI

[8] = biological target: PHR2 MYB domain (crystal) (Oryza sativa, UniProt B8B5N8 180-313); assay: X-ray crystallography, 2.7 A; EMSA: 10 nM FAM-DNA, 0.3375-0.8 uM PHR2, 25 mM Tris-HCl pH 8.0, 150 mM NaCl, 5 mM DTT, 10% glycerol, 200 ng/ml heparin, 4 C, 30 min; crystal: 13% PEG 3350, 0.1; conditions: protein: recombinant; tags: C-terminal 8xHis (general PHR2 cloning); chain copies: 2; 5' overhang 1 nt on each strand, 15 bp
PHR2 MYB domain (crystal), sequence (B8B5N8 180-313): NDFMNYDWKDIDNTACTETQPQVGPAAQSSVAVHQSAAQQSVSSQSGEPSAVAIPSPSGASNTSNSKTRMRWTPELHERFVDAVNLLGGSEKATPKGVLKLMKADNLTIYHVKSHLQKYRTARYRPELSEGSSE

[9] = biological target: the molecule itself; assay: cross-linking; mixture of PHR2^225–362-His complexes with SPX2-flag homodimer and SPX2/SPX2-flag heterodimer from the tandem pull-down; about 30 μM with 200 μM M2M, room temperature, 30 min; SDS-PAGE with or without 100 mM DTT
[10] = biological target: the molecule itself; assay: cross-linking; about 30 μM purified SPX2/PHR2^225–362 complex with 200 μM M2M, room temperature, 30 min, 25 mM Tris–HCl pH 8.0, 150 mM NaCl, 1 mM InsP6; SDS-PAGE with or without 100 mM DTT

O=P(O)(O)O[C@H]1[C@H](OP(=O)(O)O)[C@@H](OP(=O)(O)O)[C@H](OP(=O)(O)O)[C@@H](OP(=O)(O)O)[C@H]1OP(=O)(O)O [InsP6]
co-expression coupled Ni-NTA pull-down (InsP6-dependent SPX2-PHR2 association) [1]: strongly reduced or abolished by the Y25F, Y25A, L28A, K29A, or K143A/K147A substitutions of SPX2 | co-expression coupled Ni-NTA pull-down (InsP6-dependent SPX2-PHR2 association) [2]: strongly reduced or abolished by the Y25F, Y25A, L28A, K29A, or K143A/K147A substitutions of SPX2 | analytical SEC (profile shift with InsP6) (OsSPX4): their SEC profiles differ strongly in the presence of InsP6 | co-expression coupled Ni-NTA pull-down (InsP6-dependent SPX2-PHR2 association) [3]: strongly reduced or abolished by the Y25F, Y25A, L28A, K29A, or K143A/K147A substitutions of SPX2 | analytical SEC (profile shift with InsP6) (AtSPX2): their SEC profiles differ strongly in the presence of InsP6 | analytical SEC and AUC (change of oligomeric state) (OsSPX2^1-267/Δ47-64): InsP6 binding appears to stabilize the domain into a monomeric state | analytical SEC (profile shift with InsP6) (OsSPX1): their SEC profiles differ strongly in the presence of InsP6 | analytical SEC (profile shift with InsP6) (AtSPX4): their SEC profiles differ strongly in the presence of InsP6 | co-expression coupled Ni-NTA pull-down (InsP6-dependent SPX2-PHR2 association) [4]: strongly reduced or abolished by the Y25F, Y25A, L28A, K29A, or K143A/K147A substitutions of SPX2 | co-expression coupled Ni-NTA pull-down (InsP6-dependent SPX2-PHR2 association) [5]: strongly reduced or abolished by the Y25F, Y25A, L28A, K29A, or K143A/K147A substitutions of SPX2

B1: mH2A1.1^181–366-tagged SPX2^1-202/∆47-59 (domain or fragment, rice (Oryza sativa), UniProt Q6Z784 1-202, looked up)
chain: MKFGKSLSSQIVEMQPEWRDNFLSYKDLKKRLNLISGGAAGERASKAAAAGGMTLEQAGFVGLLDAELDKFNFFFLEKEEEYVIKQKELRERKMASAEEVMRVRKEIVDLHGEMVLLENYSALNYTGLVKILKKYDKRTGSMIRLPFVQKVLQQPFFTTDLLYKLVKECEEMLDQLMPTNEHSVASEDG
notes: rice (Oryza sativa) SPX2, residues 1-202 with residues 47-59 (R47-T59) deleted; also called crystallized construct
stoichiometry N [6]: 1 SPX2:PHR2 ratio (2:2) | stoichiometry N [7]: 2

B2: FAM P1BS EMSA probe (dsDNA)
DNA 1: AAGCTTGAATATGCAATGGAATATGCTTAG
DNA 2: CTAAGCATATTCCATTGCATATTCAAGCTT
binding result (PHR2 MYB-CC K292D): no binding

B3: P1BS crystal DNA (dsDNA)
DNA 1: GCTTGAGGATATCCGA
DNA 2: CTCGGATATCCTCAAG
binding result [8]: binds

B4: full-length rice SPX2 (SPX2^1–280), untagged (natural protein, rice (Oryza sativa), UniProt Q6Z784 1-280, looked up)
chain: MKFGKSLSSQIVEMQPEWRDNFLSYKDLKKRLNLISGGAAGERASKRRRVGGATAVTVTAAAAGGMTLEQAGFVGLLDAELDKFNFFFLEKEEEYVIKQKELRERKMASAEEVMRVRKEIVDLHGEMVLLENYSALNYTGLVKILKKYDKRTGSMIRLPFVQKVLQQPFFTTDLLYKLVKECEEMLDQLMPTNEHSVASEDGKDDSEGEEKGSKPSSSSSANGGAVPGEAEAEDERSTDMKSTVTAALRALREIRSGSSTVSVFSLPPLHGSNGQDEPGR
notes: rice (Oryza sativa) SPX2 (OsSPX2), full length, residues 1-280; pBB75 vector without any tag; also called OsSPX2; source: E. coli BL21(DE3), co-expressed with PHR2
stoichiometry N [6]: 1 SPX2:PHR2 ratio (2:2)

B5: SPX2^K106C-flag (natural protein, rice (Oryza sativa), UniProt Q6Z784 1-280, looked up)
chain: B4 chain with K106C
notes: rice (Oryza sativa) SPX2, residues 1-280, K106C; source: Ni-NTA pull-down and flag pull-down in tandem; not shown: 3×flag, N-terminal, kept
binding result [9]: binds

B6: SPX2^1-280_K106C (natural protein, rice (Oryza sativa), UniProt Q6Z784 1-280, looked up)
chain: B4 chain with K106C
notes: rice (Oryza sativa) SPX2, residues 1-280, K106C; also called SPX2^K106C
binding result [10]: binds
